Test results from US20030121068A1, “Vector encoding suicide and marker constructs” (priority 2001, published 2003).

Legend:
NIH 3T3 and CEM cells = test: MTS cytotoxicity assay of transduced cells in 5-FC; assay type: cell-based, murine fibroblasts (NIH 3T3); human T cells (CEM); details: untransduced NIH 3T3 and CEM cells
Method: CD function was tested by cytotoxicity assays in which transduced cells are exposed to various concentrations of 5-FC in 96 well plates. Assays were initiated using 500 cells/well of NIH cells or 10,000 cells/well of CEM cells placed in culture with semi-log increasing concentrations of 5-FC for a period of 5 days. An MTS (Promega, Cell Titre 96; cat no. G5430, GI 11) colorimetric assay (based on the conversion of a tetrazolium dye to formazan) was utilized to quantitate the concentration of viable cells on day 5. The absorbance of UV light at a wavelength of 565 nm at a given concentration of 5-FC was used to calculate the LD50 using a μQuant plate reader (Bio Tek Instruments Inc.). The fusion constructs were tested alongside controls containing only the NGFR and the CD constructs.
We tested to determine if the CD construct remained functional in the fusion protein. Cells were incubated with varying concentrations of 5-FC in 96-well plates. After 5 days, MTS reagent was added as per manufacturers recommendations. The reaction involves a color change based on the number of viable cells as the tetrazolium dye changes to formazan. Absorption of UV light at 565 nm can then be used to assess viability (shown in FIG. 3 as percentage of viable cells). Untransduced cells are resistant to the effects of 5-FC. […]

[1] = Adverse effects of 5-FC injections in mice; assay type: in vivo, NOD/Scid mice; details: 400 mg/kg, day 5 through 19, control mice injected with saline
Method: In order to determine whether genetically engineered CEM cells could be effectively eradicated in vivo, NOD/Scid mice were utilized. After being exposed to 150 rads of radiation on day 1, four groups of mice were injected with saline (control) or 5×10^6 engineered cells on day 2. The remaining three groups included non-CD containing group (LNGFRSN), E. coli fusion construct containing group (LNGCDeSN) and the Saccharomyces fusion construct-containing group (LNGCDsSN). The genetically engineered cells were suspended in PBS at a 5×10^6 cells/0.5 ml and injected via the tail vein. Commencing day 5 though day 19, the mice were injected with 5-FC (Sigma, cat no. F-7129, lot no. 110K4012) at 400 mg/kg using a stock solution of 12.5 mg/ml, prepared in normal saline. After two weeks of 5-FC treatment, the mice were followed to assess mortality within each group. A Kaplan Meyer analysis was performed to determine the effect of 5-FC treatment for each group. The experiment was continued for 100 days after initiation.
As expected, control mice injected with saline survived the duration of the experiment. […] This group serves as a second control against mice injected with CD containing fusion constructs. […]

Nc1nc(=O)[nH]cc1F [5-FC, 5-fluorocytosine]
effect of 5-FC on untransduced cells (NIH 3T3 and CEM cells): resistant
adverse effects of 5-FC injections [1]: No adverse effects
